These results are taken from ChEMBL document CHEMBL1121712, “Permethyl analogue of the pyrrolic antibiotic distamycin A” (J Med Chem, 1981).

Each structure is given as a SMILES string.

One data set concerns Plasmodium berghei. Briefly: Mean survival time in blood schizonticidal screen against Plasmodium berghei at 640 mg/kg by Rane assay; Non-toxic. The format is functional, organism-based. Details: dose 640 mg/kg.
The species entered for a further data set is Mus musculus. Briefly: Mean survival time at a dose of 25 ug/mL in mouse fibroblasts and Maloney sarcoma transplanted 3T3 fibroblasts by using Rane assay; Nontoxic. The format is functional, organism-based.
A short description of data set [1]: Dissociation constant was determined. The format is physicochemical.

Take `Cc1c(NC=O)c(C)n(C)c1C(=O)NCCC(=N)N`: the Mean survival time result in the data set on Plasmodium berghei and in the data set listed under Mus musculus was “Non-toxic” each time. With `Cc1c(NC=O)c(C)n(C)c1C(=O)Nc1c(C)c(C(=O)NCCC(=N)N)n(C)c1C`, the Mean survival time result in the data set with Plasmodium berghei and in the data set listed under Mus musculus was “Non-toxic” each time. With `Cc1c([N+](=O)[O-])c(C)n(C)c1C(=O)O`, in data set [1], the pKa stood at 5.5.

The term pKa denotes the pH at which an ionisable group is half protonated. Read a high pKa as a weaker acid or stronger base.
